Experimental data from US20210179598A1, “SELECTIVE JAK2 INHIBITOR AND APPLICATION THEREOF” (EAST CHINA UNIVERSITY OF SCIENCE AND TECHNOLOGY, priority 2018, published 2021).
Like-named read-outs stand apart in the source and are kept apart here.

Legend:
[1] = test system: H3122 cells; test: CCK-8 cell proliferation detection, H3122 cells; format: cell-based; settings: Homo sapiens, NCI-H3122; Table 2; CCK-8, 72 hrs
Text: (§1) WST-8 (chemical name: 2-(2-methoxy-4-nitrophenyl)-3-(4-nitrophenyl)-5-(2,4-disulfo benzene)-2H-tetrazolium monosodium), which is reduced to a highly water-soluble yellow formazan product (Formazan dye) by the dehydrogenase in cells under the action of the electron carrier dimethyl 1-methoxy-5-methylphenazinium sulfate (1-Methoxy PMS). The amount of the produced formazan is proportional to the number of living cells. Therefore, the survival rate of cells can be calculated indirectly by measuring the absorbance at 450 nm. The half inhibition rate of the compound on the proliferation of H3122, SET2, HEL cells can be determined by the CCK-8 method.
(§2) RPIM medium containing 10% FBS was used to culture cells (100 μL per well), and 3500 cells were inoculated into a 96-well plate, and placed in a 37° C., 5% CO2 incubator for 24 h, until 50%-70% of the cell confluence was achieved. Drugs with different concentration gradients were added respectively, and incubated for another 72 hrs. […] And finally the absorption value of each well was measured at 450 nm.
(§3) NOTE: HEL, SET-2, H3122 cells were purchased from ATCC (American type culture collection), Z′-LYTETM kinase assay platform was purchased from Invitrogen, HTRF KinEASETM-TK was purchased from Cisbio, and Cell Counting Kit-8 was purchased from Beyotime.

[2] = molecular target: JAK2 (Homo sapiens, UniProt O60674); test: JAK2 kinase activity test at molecular level (Z'-LYTE FRET); format: biochemical
Sequence of JAK2 (O60674 whole entry): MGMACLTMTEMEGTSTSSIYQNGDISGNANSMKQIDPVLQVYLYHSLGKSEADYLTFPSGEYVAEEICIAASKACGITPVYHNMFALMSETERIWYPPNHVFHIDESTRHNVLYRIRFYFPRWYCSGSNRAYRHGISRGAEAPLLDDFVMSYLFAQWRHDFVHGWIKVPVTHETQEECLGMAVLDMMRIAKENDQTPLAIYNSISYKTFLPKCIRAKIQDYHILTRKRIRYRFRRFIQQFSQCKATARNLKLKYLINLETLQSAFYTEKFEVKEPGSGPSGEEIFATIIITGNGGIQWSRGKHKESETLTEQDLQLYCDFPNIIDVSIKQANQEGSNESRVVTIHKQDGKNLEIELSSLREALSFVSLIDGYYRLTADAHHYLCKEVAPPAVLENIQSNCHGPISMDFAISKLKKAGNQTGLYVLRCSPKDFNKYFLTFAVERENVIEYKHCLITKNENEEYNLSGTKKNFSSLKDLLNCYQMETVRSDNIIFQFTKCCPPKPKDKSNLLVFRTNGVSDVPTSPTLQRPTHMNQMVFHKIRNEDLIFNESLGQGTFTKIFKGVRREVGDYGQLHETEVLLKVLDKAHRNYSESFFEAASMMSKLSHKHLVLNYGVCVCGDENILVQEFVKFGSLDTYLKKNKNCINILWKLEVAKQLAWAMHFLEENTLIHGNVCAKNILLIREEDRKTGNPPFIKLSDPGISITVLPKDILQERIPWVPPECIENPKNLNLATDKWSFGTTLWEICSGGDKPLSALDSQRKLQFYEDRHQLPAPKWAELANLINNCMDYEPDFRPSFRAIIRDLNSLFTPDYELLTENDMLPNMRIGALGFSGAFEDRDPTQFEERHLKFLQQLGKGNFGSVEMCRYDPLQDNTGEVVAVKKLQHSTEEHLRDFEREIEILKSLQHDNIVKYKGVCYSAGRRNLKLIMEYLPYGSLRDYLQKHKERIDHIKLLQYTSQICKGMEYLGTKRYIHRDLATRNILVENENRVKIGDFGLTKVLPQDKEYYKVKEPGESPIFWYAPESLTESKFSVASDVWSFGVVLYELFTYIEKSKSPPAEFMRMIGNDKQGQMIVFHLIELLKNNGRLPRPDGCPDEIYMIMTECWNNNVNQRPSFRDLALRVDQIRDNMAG
Description: JAK2 can catalyze the transfer of a phosphate group of adenosine triphosphate (ATP) to a polypeptide substrate, and the polypeptide substrate is labeled with two fluorescent groups, coumarin and fluorescein. […] Therefore, the inhibition rates of different compounds can be calculated by measuring the ratio of enzyme-catalyzed substrate phosphorylation percentages.
10 μL reaction system, 2.5 μL test compound, 5 μL kinase/peptide substrate mixture and 2.5 μL ATP solution were added into a 384-well plate, shaken for 30 s, and incubated at room temperature for 1 hour. 5 μL of proteolytic enzyme and 15 μL of the reaction system were added and shaken for 30 s and incubated at room temperature for 1 h. 5 μL of stop reagent was added, and the reaction system with a total volume of 20 μL was shaken for 30 seconds. A microplate reader was used to detect the fluorescence signal. […] The inhibition rates of the compound at 7 concentration gradients were determined, and the IC50 value for each compound was calculated by fitting curve with Origin 8.0.
as §3

[3] = test system: HEL (JAK2 V617F) cells; test: CCK-8 cell proliferation detection, HEL cells; format: cell-based; settings: Homo sapiens, Table 2, CCK-8, 72 hrs
Text: as §1, §2, §3

[4] = molecular target: ALK (Homo sapiens, UniProt Q9UM73); test: ALK kinase IC50 test (HTRF); format: biochemical; settings: Table 2
Sequence of ALK (Q9UM73 19-1620, species assumed): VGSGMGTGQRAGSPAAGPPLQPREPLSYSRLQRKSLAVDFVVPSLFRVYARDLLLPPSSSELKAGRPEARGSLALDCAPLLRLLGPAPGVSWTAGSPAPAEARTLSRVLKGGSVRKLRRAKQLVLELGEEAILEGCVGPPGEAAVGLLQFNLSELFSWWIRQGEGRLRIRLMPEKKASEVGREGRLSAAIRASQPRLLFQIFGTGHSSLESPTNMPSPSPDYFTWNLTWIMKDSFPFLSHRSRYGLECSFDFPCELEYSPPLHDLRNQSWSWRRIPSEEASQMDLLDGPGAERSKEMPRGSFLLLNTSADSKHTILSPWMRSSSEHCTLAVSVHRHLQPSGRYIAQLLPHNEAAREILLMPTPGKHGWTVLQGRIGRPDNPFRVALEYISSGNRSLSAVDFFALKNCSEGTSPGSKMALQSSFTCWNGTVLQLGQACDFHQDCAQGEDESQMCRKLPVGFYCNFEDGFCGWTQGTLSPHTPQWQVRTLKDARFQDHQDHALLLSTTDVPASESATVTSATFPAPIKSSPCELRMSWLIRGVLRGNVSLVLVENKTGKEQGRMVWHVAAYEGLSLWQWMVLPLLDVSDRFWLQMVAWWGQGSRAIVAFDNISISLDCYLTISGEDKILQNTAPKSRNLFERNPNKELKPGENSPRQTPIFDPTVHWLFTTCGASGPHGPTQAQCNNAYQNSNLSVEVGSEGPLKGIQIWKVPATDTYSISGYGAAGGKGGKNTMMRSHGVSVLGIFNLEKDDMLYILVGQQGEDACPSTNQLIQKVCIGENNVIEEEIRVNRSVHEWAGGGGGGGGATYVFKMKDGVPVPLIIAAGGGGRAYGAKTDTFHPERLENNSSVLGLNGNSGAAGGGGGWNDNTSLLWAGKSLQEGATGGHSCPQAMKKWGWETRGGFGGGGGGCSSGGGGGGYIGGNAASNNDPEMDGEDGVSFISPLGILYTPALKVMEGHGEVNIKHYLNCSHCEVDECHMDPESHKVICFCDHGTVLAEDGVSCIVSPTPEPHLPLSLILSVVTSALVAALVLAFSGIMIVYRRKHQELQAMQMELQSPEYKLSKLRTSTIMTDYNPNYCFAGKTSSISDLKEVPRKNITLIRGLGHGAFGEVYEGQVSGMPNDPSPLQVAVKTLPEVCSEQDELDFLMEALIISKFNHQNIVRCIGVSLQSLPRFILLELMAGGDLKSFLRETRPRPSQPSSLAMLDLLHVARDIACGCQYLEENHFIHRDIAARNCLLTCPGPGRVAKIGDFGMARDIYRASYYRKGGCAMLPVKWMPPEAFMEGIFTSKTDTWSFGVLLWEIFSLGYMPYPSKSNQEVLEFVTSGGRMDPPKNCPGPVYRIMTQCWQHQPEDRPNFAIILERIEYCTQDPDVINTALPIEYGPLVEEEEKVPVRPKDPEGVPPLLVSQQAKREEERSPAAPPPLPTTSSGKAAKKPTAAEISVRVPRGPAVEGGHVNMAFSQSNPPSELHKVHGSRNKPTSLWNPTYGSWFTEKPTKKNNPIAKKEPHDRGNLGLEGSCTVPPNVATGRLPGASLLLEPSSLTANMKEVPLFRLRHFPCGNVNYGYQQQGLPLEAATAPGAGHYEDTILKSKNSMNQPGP
Text: According to HTRF method, the peptide substrate was labeled with a biotin, which can specifically bind to XL665-labeled streptavidin. When the kinase adds a phosphate group to the polypeptide substrate in the first step, its Eu-labeled specific phosphorylation antibody can recognize and bind to it. In this way, in the second step of detection, a complex of XL665-labeled streptavidin, phosphorylated peptide substrate and Eu-labeled phosphorylation antibody can be formed. Since the distance between XL665 and Eu is short, FRET can be formed. On the other hand, Eu has a relatively long fluorescence half-life and can be applied to time-resolved fluorescence detection.
10 μL of reaction system, 4 μL test compound, 2 μL kinase, 2 μL biotin-labeled substrate and 2 μL ATP, was added into a 384-well plate, shaken for 30 s, and incubated at room temperature for 1 hour. 5 μL of Eu-labeled phosphorylation site-specific antibody and 5 μL of XL665-labeled streptavidin were added. The reaction system was shaken for 30 s, and incubated at room temperature for 1 hour. A microplate reader was used to detect the fluorescence signal. The inhibition rates of the compounds under 8 concentration gradients were determined, and the IC50 value of each compound was calculated by fitting curve with Origin 8.0. […] Each experiment was performed in triplicate.
as §3

[5] = test system: SET 2 (JAK2 V617F) cells; test: CCK-8 cell proliferation detection, SET2 cells; format: cell-based; settings: Homo sapiens, SET-2; Table 2; CCK-8, 72 hrs
Text: as §1, §2, §3

[6] = Table 1, read-out: JAK2 kinase activity IC50

Row | SMILES | melting point [°C] | IC50 [1] [µM] | IC50 [2, 6] [µM] | IC50 [4] [µM] | IC50 ([2]; Table 2, read-out: JAK2 IC50) [µM] | IC50 [3] [µM] | IC50 [5] [µM]
1 | C[C@@H](Oc1cc(-c2cncc(N3CCNCC3)c2)cnc1N)c1c(Cl)ccc(F)c1Cl [WWQ-1093-23, (R)-5-[1-(2,6-dichloro-3-fluorophenyl)ethoxy]-5′-piperazine-[3,3′-dipyridine]-6-amine] | 189.7 to 190.6 | 1.54 ± 0.034 | 0.119 ± 0.0082 | 2.44 |  | 10.4 | 2.89
2 | C[C@@H](Oc1cc(-c2cnn(C3CCNCC3)c2)cnc1N)c1ccccc1 [WWQ-1093-25, 4-[3-(1-phenylpropoxy)-2-aminopyridine]pyrazole-1-piperidine] | 194.2 to 195 | 3.52 ± 0.102 | 0.215 ± 0.0124 | 5.43 |  | 13.7 | 4.61
3 | C[C@@H](Oc1cc(-c2cnn(C3CCOCC3)c2)cnc1N)c1c(Cl)ccc(F)c1Cl [WWQ-1093-27] | 188.1 to 190.4 | 7.18 ± 0.838 | 0.0647 ± 0.0004 | 0.855 |  | 8.05 | 1.68
4 | COc1ccc(F)cc1C(C)Oc1cc(-c2cnn(C3CCNCC3)c2)cnc1N (centres unmarked) [WWQ-1093-71] | 191.6 to 192.3 | < 0.5 | 0.003 ± 0.0001 | 1.33 | 0.003 ± 0.0001 | 9.97 | 0.616
5 | C[C@@H](Nc1cc(-c2cnn(C3CCNCC3)c2)cnc1N)c1c(Cl)ccc(F)c1Cl [WWQ-1093-73, 4-{3-[1-(2,6-dichloro-3-fluorophenyl)ethylamino]-2-aminopyridine}pyrazole-1-piperidine] | 191.5 to 191.7 | 4.366 ± 0.005 | 0.126 ± 0.0053 | 3.45 |  | 13.4 | 2.2
6 | CC(Oc1cc(-c2ccccc2)cnc1N)c1cc(F)ccc1Cl (centres unmarked) [WWQ-1093-75, 3-(1-(2-chloro-5-fluorophenyl)ethoxy)-2-amino-5-phenylpyridine] | 199 to 199.8 | 14.4 ± 4.21 | 0.461 ± 0.002 | > 10 | 0.461 ± 0.002 | 24.5 | 33.2
7 | CC(Oc1cc(-c2cn[nH]c2)cnc1N)c1cc(F)ccc1Cl (centres unmarked) [WWQ-1093-81, 3-(1-(2-chloro-5-fluorophenyl)ethoxy)-2-amino-5-pyrazolepyridine] | 183.8 to 184.6 | 2.55 ± 0.16 | 0.016 ± 0.0001 | 0.334 | 0.016 ± 0.0001 | 4.7 | 5.55
8 | CC(Oc1cc(-c2ccccc2)cnc1N)c1c(Cl)ccc(F)c1Cl (centres unmarked) [WWQ-1093-83] | 160.4 to 161.4 | 6.06 ± 0.081 |  | > 10 | > 10 | 11.3 | 11.6
9 | CC(Oc1cc(-c2ccc(N3CCNCC3)cc2)cnc1N)c1cc(F)ccc1Cl (centres unmarked) [WWQ-1093-85] | 191.1 to 193.7 | 1.14 ± 0.012 | 0.037 ± 0.003 | 0.498 | 0.037 ± 0.003 | 35.8 | 8.26
10 | CC(Oc1cc(-c2ccc(C3CCNCC3)cc2)cnc1N)c1cc(F)ccc1Cl (centres unmarked) [WWQ-1093-87] | 189.8 to 191 | > 10 | 0.048 ± 0.008 | 0.545 | 0.048 ± 0.008 | 35.4 | 9.7
11 | CC(Oc1cc(-c2cccc(N3CCNCC3)c2)cnc1N)c1cc(F)ccc1Cl (centres unmarked) [WWQ-1093-89] | 190.8 to 191.6 | < 0.5 | 0.027 ± 0.002 | 0.334 | 0.027 ± 0.002 | 8.43 | 2.26
12 | CC(Oc1cc(-c2cccc(C3CCNCC3)c2)cnc1N)c1cc(F)ccc1Cl (centres unmarked) [WWQ-1093-91] | 192.1 to 193.4 | 0.956 | 0.035 ± 0.001 | 1.25 | 0.035 ± 0.001 | 8.77 | 2.36

Further lines, with some results ahead:

Row | melting point [°C] | IC50 [1] [µM] | IC50 [2, 6] [µM] | IC50 [4] [µM] | IC50 ([2]; Table 2, read-out: JAK2 IC50) [µM] | SMILES | IC50 [3] [µM] | IC50 [5] [µM]
13 | 189.8 to 191.3 | 4.83 ± 0.082 | 0.0265 ± 0.0265 | 0.423 |  | COc1ccc(F)c(Cl)c1C(C)Oc1cc(-c2cnn(C3CCNCC3)c2)cnc1N (centres unmarked) [WWQ-175, 4-{3-[1-(2-chloro-3-fluoro-6-methoxyphenyl)ethoxy]-2-aminopyridine}pyrazol-1-piperidine] | 11.3 | 0.916
14 | 158.8 to 159.8 | 6.32 ± 0.128 | 3.05 ± 0.204 | > 10 |  | C[C@@H](Oc1cc(-c2cccnc2)cnc1N)c1c(Cl)ccc(F)c1Cl [WWQ-189, (R)-5-[1-(2,6-dichloro-3-fluorophenyl)ethoxy]-[3,3′-dipyridine]-6-amine] | 13.2 | 11.1
15 | 197.8 to 198.5 | 1.17 ± 0.093 | 0.804 ± 0.009 | 3.44 |  | C[C@@H](Oc1cc(-c2ccc(N3CCNCC3)nc2)cnc1N)c1c(Cl)ccc(F)c1Cl [WWQ-191, (R)-5-[1-(2,6-dichloro-3-fluorophenyl)ethoxy]-6′-piperazin-[3,3′-dipyridine]-6-amine] | 30.1 | 3.22
16 | 192.2 to 193.4 | 20.7 ± 0.394 | 3.4 ± 0.431 | > 10 | 3.4 ± 0.431 | CC(Oc1cc(-c2cnn(C3CCNCC3)c2)cnc1N)C1CCCCC1 (centres unmarked) [WWQ-197, 4-{3-[1-cyclohexaneethoxy]-2-aminopyridine}pyrazol-1-piperidine] | 12.9 | 7.02
17 |  | > 100 |  | > 10 | 1.12 ± 0.014 | CC(Oc1cc(-c2nccs2)cnc1N)c1cc(F)ccc1Cl (centres unmarked) [XFL-169] | 15.9 | 8.17
18 |  | 11.9 ± 0.31 |  | > 10 | 1.84 ± 0.025 | CC(Oc1cc(-c2cn(C)cn2)cnc1N)c1cc(F)ccc1Cl (centres unmarked) [XFL-171] | 13.5 | 4.47
19 |  | > 100 |  | 7.78 | 0.931 ± 0.032 | CC(Oc1cc(-n2cccn2)cnc1N)c1cc(F)ccc1Cl (centres unmarked) [XFL-179] | > 50 | > 50
